Where only a bound is given, the exact number is not on record here.

These results are taken from US9879004B2, “Substituted acetylene derivatives and their use as positive allosteric modulators of mGluR4” (Merck Patent GmbH, priority 2013, dated 2018).

For the assay, the target named is T1, mGluR4 (HEK293T-hmGluR4 cells) (Homo sapiens, UniProt Q14833).
T1 construct: host or cells: HEK293T
The experiment in a line: HEK-293 mGluR4 cells cAMP assay with EC20 L-Glutamate (HTRF). Format: cell-based. Particulars: positive allosteric activity at EC20 L-Glutamate, 10 μM Forskolin, cAMP HTRF readout, read-out: hrmGluR4/HEK293T-hmGluR4 (EC50). Here is the method:
HEK-293 mGluR4 cells cAMP assay with EC20 L-Glutamate
Using mGluR4 suspension cell format, 10 μM Forskolin (final conc.) used to induce the production of cAMP.
Test the positive allosteric activity of the compounds of the invention at EC20 (2.3 μM for mGluR4 and 4.3 μM for mGluR6) L-Glutamate,
cAMP dymanic2 kit is intended for the direct quantitative determination of cAMP and its principle is based on HTRF technology.
Cells: HEK293T mGluR4 cells from Multispan, cat# C1191a lot# C1191a-040910 Culture Media: DMEM+GlutaMAX1+10% dialyzed FBS, 100 mM Sodium Pyruvate, 1 ug/ml puromycin.
Glutamine Starvation Media: DMEM without GlutaMax for plating the cells (glutamine starvation overnight). DMEM high Glucose, without phenol red, glutamine, or sodium pyruvate+10% dialyzed FBS, 100 mM Sodium Pyruvate, 1 ug/ml puromycin, 10 mM Hepes.
Cell Preparation: split cells at 80%-90% confluence. The following day, rinse the cells with DMEM without GlutaMax and change to Glutamine Starvation Media. Incubate overnight.
Prepare compound plate: Perform compound serial dilution (uses Matrix 4341 plate), using the Bravo liquid handling platform protocol (compound serial dilution) which adds DMSO to columns 1-24 (except cols. 3 and 13). Serial dilute compounds located in columns 3 and 13 at a 1:3 ratio; 10 points (10 ul of 3 mM compound into 20 ul DMSO). Use the Bravo liquid handling platform to transfer 1 ul from the serial dilution plate into Matrix 4314 plate to create stamp plates.
Dilute 20 mM Forskolin (in DMSO) stock solution in HBSS buffer to make a 20 uM solution (forskolin buffer; 2× solution). To the forskolin buffer, add glutamate to a concentration of 8 uM (compound dilution buffer; 2×EC20 glutamate and forskolin).
Using a multidrop, add 50 ul/well of compound dilution buffer to columns 1-22 of the 2 ul compound stamp plate. Columns 23 and 24 receive forskolin buffer containing 400 uM glutamate (EC100 glutamate; 2× solution). Columns 1 and 2 receive compound dilution buffer containing EC20 glutamate, which is the basal control. Add a glutamate dose response to row P of compound plate. Prepare the dose response by serial diluting glutamate at a 1:3 ratio in forskolin buffer starting at 2 mM glutamate (2×). Dilute the glutamate 9 times and transfer to compound plate.
Harvest cells: Rinse cells with pre-warmed HBSS-10 mM HEPES (without Ca Mg) and dissociate the cells from the flask with versene. Centrifuge the cells, remove the supernatant and suspend in pre-warmed HBSS+10 mM Hepes. Count the cells and centrifuge. Remove the supernatant and suspend the cells in HBSS+Hepes (with Ca Mg) at a density of 400,000 cells/ml.
Dispense 5 ul from the diluted compound plate into Greiner low volume cell plate using the Bravo liquid handling platform. Using a Multidrop with the small tubing cassette, dispense 5 ul of cells (2000 cells/well) onto the compounds contained in the low volume plates. Incubate the cells at 37° C., 5% CO2 for 30 minutes in the incubator.
Prepare cAMP-d2 and anti-cAMP-Crytate according to the instructions for the two step assay (see Cisbio manual) and add 10 ul of the mixed reagent to each well of the assay plate using the Multidrop. Incubate at room temperature for 60 minutes and read on the Envision plate reader using the mGluR low volume cAMP HTRF 384 well protocol. The readout is the calculated fluorescence ratio ([…]*10000).
A general note: Changes in cAMP serve as a functional read-out for many G protein-coupled receptors.

T1 sequence (Q14833 33-912): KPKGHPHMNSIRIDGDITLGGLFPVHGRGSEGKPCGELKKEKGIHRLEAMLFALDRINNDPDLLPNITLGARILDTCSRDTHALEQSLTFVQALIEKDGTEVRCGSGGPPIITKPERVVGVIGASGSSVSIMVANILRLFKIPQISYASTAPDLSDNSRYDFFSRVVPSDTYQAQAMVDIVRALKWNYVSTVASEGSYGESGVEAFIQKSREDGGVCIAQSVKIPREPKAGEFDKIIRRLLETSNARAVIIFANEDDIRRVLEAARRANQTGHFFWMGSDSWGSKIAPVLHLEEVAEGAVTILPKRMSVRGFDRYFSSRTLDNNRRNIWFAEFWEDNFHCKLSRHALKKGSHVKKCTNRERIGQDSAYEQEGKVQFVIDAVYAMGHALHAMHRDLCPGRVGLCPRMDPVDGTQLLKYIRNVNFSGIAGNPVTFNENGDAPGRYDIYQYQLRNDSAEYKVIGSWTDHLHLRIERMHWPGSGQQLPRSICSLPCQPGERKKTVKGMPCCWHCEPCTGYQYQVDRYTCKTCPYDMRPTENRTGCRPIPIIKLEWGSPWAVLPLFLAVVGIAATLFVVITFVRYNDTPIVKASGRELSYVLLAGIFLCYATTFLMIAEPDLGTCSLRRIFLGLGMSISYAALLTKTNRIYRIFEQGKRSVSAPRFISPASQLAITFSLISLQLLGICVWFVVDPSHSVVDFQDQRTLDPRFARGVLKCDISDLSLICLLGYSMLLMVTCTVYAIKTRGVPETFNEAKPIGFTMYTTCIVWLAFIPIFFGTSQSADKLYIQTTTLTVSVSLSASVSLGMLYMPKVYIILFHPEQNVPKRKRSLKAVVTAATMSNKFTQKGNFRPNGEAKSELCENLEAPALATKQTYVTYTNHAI

For `C(#Cc1ccnc2ccccc12)c1ccccc1` [Compound 1, 4-Phenylethynyl-quinoline], the EC50 is under 1000 nM.

On to `Fc1cccc(C#Cc2ccnc3ccccc23)c1` [Compound 2, 4-(3-Fluoro-phenylethynyl)-quinoline], for which the EC50 was under 1000 nM.

`C(#Cc1ccnc2ccccc12)c1ccsc1` [Compound 3, 4-Thiophen-3-ylethynyl-quinoline]: the EC50 was under 1000 nM.

On to `Fc1ccc(C#Cc2ccnc3ccccc23)cc1` [Compound 4, 4-(4-Fluoro-phenylethynyl)-quinoline], for which the EC50 was under 1000 nM.

For `Fc1ccc(C#Cc2ccnc3ccccc23)cc1F` [Compound 5, 4-(3,4-Difluoro-phenylethynyl)-quinoline], the EC50 is under 1000 nM.

As for `C(#Cc1ccnc2ccccc12)c1cccs1` [Compound 6, 4-Thiophen-2-ylethynyl-quinoline], the EC50 lay in the range of 1000 to 10000 nM.

Regarding `Fc1ccccc1C#Cc1ccnc2ccccc12` [Compound 7, 4-(2-Fluoro-phenylethynyl)-quinoline], the EC50 was in the range of 1000 to 10000 nM.

As to `Fc1ccccc1C#Cc1ccnc2[nH]ccc12` [Compound 8, 4-(2-Fluoro-phenylethynyl)-1H-pyrrolo[2,3-b]pyridine], the EC50 lay in the range of 1000 to 10000 nM.

Regarding `Clc1cccc(C#Cc2ccnc3ccccc23)c1` [Compound 9, 4-(3-Chloro-phenylethynyl)-quinoline], the EC50 lay within 1000 to 10000 nM.
